Experimental data taken from DBAASP.
Values after ≈ are worked out from the molar mass of the structure shown. Values joined by “and” are separate entries in the source; they are usually repeats but may differ in a detail not shown here. Identical values can stand only once. One block for each compound: values may come before it.

Experiments:
Test in all cases: ≥ marks a high value that may be exact or a test limit, other limits are often not marked, values filed in µg/mL are converted to µM
[1] = test system: Mycobacterium tuberculosis H37Rv
[2] = test system: Mycobacterium tuberculosis CAS3
[3] = test system: Mycobacterium tuberculosis WXY
[4] = test system: Candida albicans NRRL Y-326
[5] = test system: Candida krusei NRRL Y-27803
[6] = test system: Staphylococcus aureus ATCC 25923
[7] = test system: Escherichia coli ATCC 25922
[8] = test system: Fusarium solani NRRL 28548
[9] = test system: Staphylococcus aureus ATCC 33592
[10] = test system: Klebsiella pneumoniae ATCC 10031
[11] = test system: Candida parapsilosis NRRL Y-1761
[12] = test system: Pseudomonas aeruginosa ATCC 19660
[13] = test system: Acinetobacter baumannii ATCC 17978
Staphylococcus aureus = test system: Staphylococcus aureus
[14] = test system: Mucor circinelloides NRRL 3631
[15] = test system: Lichtheimia corymbifera NRRL 6251
[16] = test system: Pseudomonas aeruginosa ATCC 27853
[17] = test system: Aspergillus flavus ATCC MYA-3651
Aspergillus fumigatus = test system: Aspergillus fumigatus
Enterobacter cloacae = test system: Enterobacter cloacae
Staphylococcus aureus MR = test system: Staphylococcus aureus MR
[18] = test system: Staphylococcus epidermidis ATCC 51625
[19] = test system: Staphylococcus epidermidis KCTC 1917
[20] = test system: Acinetobacter baumannii KCCM 1053
[21] = test system: Salmonella typhimurium KCTC 1926
[22] = test system: Staphylococcus aureus KCTC 1621
[23] = test system: Bacillus subtilis KCTC 3068
[24] = test system: Acinetobacter baumannii ATCC BAA-1605
[25] = test system: Pseudomonas aeruginosa KCTC 1637
[26] = test system: Escherichia coli KCTC 1682
[27] = test system: Pseudomonas aeruginosa CCARM 2180
[28] = test system: Staphylococcus aureus KCCM 40510
[29] = test system: Enterococcus faecalis ATCC 51575
[30] = test system: Enterococcus faecalis KCCM 11814
[31] = test system: Acinetobacter baumannii 4-MRGN
Enterococcus faecium = test system: Enterococcus faecium
[32] = test system: Legionella pneumophila Lens
[33] = test system: Staphylococcus aureus ATCC 29213
Enterococcus faecalis VR = test system: Enterococcus faecalis VR
[34] = test system: Staphylococcus aureus ATCC 43300
Pseudomonas aeruginosa = test system: Pseudomonas aeruginosa
[35] = test system: Escherichia coli ATCC BAA-2523
Enterococcus faecalis = test system: Enterococcus faecalis

MIC [1]: ≥ 139 µM | MIC [2]: ≥ 139 µM | MIC [3]: ≥ 139 µM
Compound: CC(C)C[C@H](NC(=O)[C@H](CC(C)C)NC(=O)[C@H](CCCCN)NC(=O)[C@H](CCCCN)NC(=O)[C@@H](NC(=O)[C@H](C)N)C(C)C)C(=O)N[C@@H](C)C(=O)N[C@@H](C)C(=O)N[C@@H](C)C(=O)N[C@@H](CO)C(=O)N[C@@H](C)C(=O)N[C@@H](C)C(=O)N[C@@H](C)C(=O)N[C@@H](CCCCN)C(=O)N[C@@H](CCCCN)C(=O)O [AVKKLLAAASAAAKK]

MIC [4]: 30.7 µM (≈ 64 µg/mL) | MIC [5]: 30.7 µM (≈ 64 µg/mL) | MIC [6]: 2.88 µM (≈ 6 µg/mL) | MIC [7]: 2.88 µM (≈ 6 µg/mL) | MIC [8]: 0.961 µM (≈ 2 µg/mL) | MIC [9]: 3.84 µM (≈ 8 µg/mL) | MIC [10]: 15.4 µM (≈ 32 µg/mL) | MIC [11]: 30.7 µM (≈ 64 µg/mL) | MIC [12]: 15.4 µM (≈ 32 µg/mL) | MIC [13]: 7.69 µM (≈ 16 µg/mL) | MIC (Staphylococcus aureus): 2.72 µM (≈ 5.65 µg/mL) | MIC [14]: ≥ 61.5 µM | MIC [15]: 0.961 µM (≈ 2 µg/mL) | MIC [16]: 2.88 µM and 7.69 µM | MIC [17]: ≥ 61.5 µM | MIC (Aspergillus fumigatus): ≥ 43.5 µM | MIC (Enterobacter cloacae): 2.72 µM (≈ 5.65 µg/mL) | MIC (Staphylococcus aureus MR): 3.84 µM (≈ 8 µg/mL) | MIC [18]: 1.92 µM (≈ 4 µg/mL)
Compound: CC[C@H](C)[C@H](NC(=O)[C@H](CCCCN)NC(=O)[C@H](C)NC(=O)[C@H](CCCN=C(N)N)NC(=O)[C@H](CC(C)C)NC(=O)[C@H](CCCN=C(N)N)NC(=O)[C@@H](NC(=O)[C@H](CCCCN)NC(=O)[C@@H](NC(=O)[C@H](CCCCN)NC(=O)[C@H](C)NC(=O)[C@H](CCCN=C(N)N)NC(=O)[C@H](CC(C)C)NC(=O)[C@H](CCCCN)NC(=O)[C@@H](N)Cc1ccccc1)[C@@H](C)CC)C(C)C)C(=O)N[C@@H](CCCCN)C(=O)N[C@@H](CC(C)C)C(N)=O [FKLRAKIKVRLRAKIKL]

MIC [19]: 8 µM (≈ 14 µg/mL) | MIC [20]: 22.6 µM (≈ 39.5 µg/mL) | MIC [21]: 8 µM (≈ 14 µg/mL) | MIC [22]: 16 µM (≈ 27.9 µg/mL) | MIC [23]: ≥ 32 µM | MIC [24]: ≥ 64 µM | MIC [25]: 4 µM (≈ 6.98 µg/mL) | MIC [26]: 2.83 µM (≈ 4.94 µg/mL) | MIC [27]: ≥ 64 µM | MIC [28]: 22.6 µM (≈ 39.5 µg/mL) | MIC [29]: 11.3 µM (≈ 19.7 µg/mL) | MIC [30]: ≥ 32 µM
Compound: CC[C@H](C)[C@@H]1NC(=O)[C@H](CCCN=C(N)N)NC(=O)[C@@H](NC(=O)[C@H](CC(C)C)NC(=O)[C@@H](N)CCCN=C(N)N)CSSC[C@@H](C(=O)N[C@@H](CCCN=C(N)N)C(=O)O)NC(=O)[C@H](Cc2c[nH]c3ccccc23)NC(=O)[C@H](CCCN=C(N)N)NC(=O)[C@H]([C@@H](C)CC)NC(=O)[C@H](Cc2c[nH]c3ccccc23)NC(=O)[C@H](Cc2c[nH]c3ccccc23)NC1=O [RLCRIWWIRWCR]

MIC [31]: ≥ 99.9 µM | MIC [16]: > 99.9 µM | MIC (Enterococcus faecium): ≥ 99.9 µM
Compound: CC[C@H](C)[C@H](NC(=O)[C@H](CCC(=O)O)NC(=O)[C@@H]1CSSC[C@@H]2NC(=O)[C@H](Cc3ccc(O)cc3)NC(=O)[C@@H](NC(=O)[C@@H](NC(=O)[C@H](C)N)[C@@H](C)O)CSSC[C@H](NC(=O)[C@H](CCCN=C(N)N)NC(=O)CNC(=O)[C@H]([C@@H](C)O)NC(=O)[C@H](CCCN=C(N)N)NC2=O)C(=O)N[C@@H](C)C(=O)N[C@@H]([C@@H](C)O)C(=O)N[C@@H](CCCN=C(N)N)C(=O)N[C@@H](CCC(=O)O)C(=O)N[C@@H](CO)C(=O)N[C@@H](CC(C)C)C(=O)N[C@@H](CO)C(=O)NCC(=O)N[C@@H](C(C)C)C(=O)N1)C(=O)N[C@@H](CO)C(=O)NCC(=O)N[C@@H](CCCN=C(N)N)C(=O)N[C@@H](CC(C)C)C(=O)N[C@@H](Cc1ccc(O)cc1)C(=O)N[C@@H](CCCN=C(N)N)C(=O)O [ATCYCRTGRCATRESLSGVCEISGRLYR]

MIC [32]: 0.62 µM (≈ 1.57 µg/mL)
Compound: CC[C@H](C)[C@H](NC(=O)[C@H](CC(C)C)NC(=O)[C@H](CCCCN)NC(=O)[C@H](CCCCN)NC(=O)[C@@H](NC(=O)[C@@H](NC(=O)[C@H](CCC(=O)O)NC(=O)[C@@H](NC(=O)[C@@H](NC(=O)[C@H](CCCCN)NC(=O)[C@H](C)NC(=O)[C@@H](NC(=O)[C@@H](NC(=O)[C@H](CC(=O)O)NC(=O)[C@H](C)NC(=O)[C@@H](N)CCSC)C(C)C)[C@@H](C)CC)[C@@H](C)CC)C(C)C)[C@@H](C)CC)C(C)C)C(=O)N[C@@H](CC(=O)O)C(=O)N[C@@H](CCC(N)=O)C(=O)N[C@@H](Cc1ccccc1)C(=O)N[C@H](C(=O)N[C@@H](CCC(N)=O)C(=O)N[C@@H](CCCCN)C(=O)O)[C@@H](C)O [MADVIAKIVEIVKKLIDQFTQK]

MIC [33]: 128 µM (≈ 301 µg/mL) | MIC [7]: > 128 µM | MIC (Enterococcus faecalis VR): ≥ 128 µM | MIC [34]: 128 µM (≈ 301 µg/mL) | MIC [16]: > 128 µM | MIC (Pseudomonas aeruginosa): > 128 µM | MIC [35]: ≥ 128 µM | MIC (Enterococcus faecalis): ≥ 128 µM
Compound: CC(C)C[C@H](NC(=O)[C@@H](N)CCC(N)=O)C(=O)NCC(=O)N[C@@H](CCCCN)C(=O)N[C@@H](CCCCN)C(=O)N[C@@H](CCCCN)C(=O)N[C@@H](Cc1cnc[nH]1)C(=O)N[C@@H](CCCN=C(N)N)C(=O)N[C@@H](CCCN=C(N)N)C(=O)N[C@@H](CCCN=C(N)N)C(=O)N1CCC[C@H]1C(=O)N[C@@H](CO)C(=O)N[C@@H](CCCCN)C(=O)N[C@@H](CCCCN)C(=O)N[C@@H](CCCCN)C(=O)N[C@@H](CCCN=C(N)N)C(=O)N[C@@H](Cc1cnc[nH]1)C(=O)N[C@@H](Cc1c[nH]c2ccccc12)C(=O)O [QLGKKKHRRRPSKKKRHW]
